Data: US11254696B2, “Dianilinopyrimidine compound for inhibiting kinase activity” (Shenzhen Targetrx, Inc., priority 2017, dated 2022)

Legend:
ALK [WT] = ALK [WT] (Homo sapiens, UniProt Q9UM73); experiment: Kinase inhibition assay, ALK [WT]; assay type: biochemical
Procedure: (§1) Compound preparation: The test compounds were dissolved in DMSO to make 20 mM stock solutions. The compounds were diluted in DMSO to 0.1 mM (a dilution with 100 times the final concentration) before use, and a 3-fold series gradient dilution with 11 concentrations was made. Dilutions with 4 times of the final concentration were prepared by diluting with buffer when dosing.
(§2) Kinase assay: after preparing the buffer solution, the enzyme was mixed with pre-diluted compounds with different concentrations, and placed at room temperature for 30 minutes in duplicate. The corresponding substrate and ATP were added thereto and reacted at room temperature for 60 minutes (both a negative and a positive control were set). After the reaction, antibody was added for detection, and after incubation at room temperature for 60 minutes, Evnvision detection was carried out, and data was collected. Data was analyzed and fit according to XLfit5 software. IC50 was calculated by the following formula: (IC50=[(ABS test−ABS begin)/(ABS control−ABS begin)]×100).

ALK [L1196M] = ALK [L1196M] (Homo sapiens, UniProt Q9UM73, L1196M); experiment: Kinase inhibition assay, ALK [L1196M]; assay type: biochemical
Sequence of ALK [L1196M] (Q9UM73 19-1620 L1196M): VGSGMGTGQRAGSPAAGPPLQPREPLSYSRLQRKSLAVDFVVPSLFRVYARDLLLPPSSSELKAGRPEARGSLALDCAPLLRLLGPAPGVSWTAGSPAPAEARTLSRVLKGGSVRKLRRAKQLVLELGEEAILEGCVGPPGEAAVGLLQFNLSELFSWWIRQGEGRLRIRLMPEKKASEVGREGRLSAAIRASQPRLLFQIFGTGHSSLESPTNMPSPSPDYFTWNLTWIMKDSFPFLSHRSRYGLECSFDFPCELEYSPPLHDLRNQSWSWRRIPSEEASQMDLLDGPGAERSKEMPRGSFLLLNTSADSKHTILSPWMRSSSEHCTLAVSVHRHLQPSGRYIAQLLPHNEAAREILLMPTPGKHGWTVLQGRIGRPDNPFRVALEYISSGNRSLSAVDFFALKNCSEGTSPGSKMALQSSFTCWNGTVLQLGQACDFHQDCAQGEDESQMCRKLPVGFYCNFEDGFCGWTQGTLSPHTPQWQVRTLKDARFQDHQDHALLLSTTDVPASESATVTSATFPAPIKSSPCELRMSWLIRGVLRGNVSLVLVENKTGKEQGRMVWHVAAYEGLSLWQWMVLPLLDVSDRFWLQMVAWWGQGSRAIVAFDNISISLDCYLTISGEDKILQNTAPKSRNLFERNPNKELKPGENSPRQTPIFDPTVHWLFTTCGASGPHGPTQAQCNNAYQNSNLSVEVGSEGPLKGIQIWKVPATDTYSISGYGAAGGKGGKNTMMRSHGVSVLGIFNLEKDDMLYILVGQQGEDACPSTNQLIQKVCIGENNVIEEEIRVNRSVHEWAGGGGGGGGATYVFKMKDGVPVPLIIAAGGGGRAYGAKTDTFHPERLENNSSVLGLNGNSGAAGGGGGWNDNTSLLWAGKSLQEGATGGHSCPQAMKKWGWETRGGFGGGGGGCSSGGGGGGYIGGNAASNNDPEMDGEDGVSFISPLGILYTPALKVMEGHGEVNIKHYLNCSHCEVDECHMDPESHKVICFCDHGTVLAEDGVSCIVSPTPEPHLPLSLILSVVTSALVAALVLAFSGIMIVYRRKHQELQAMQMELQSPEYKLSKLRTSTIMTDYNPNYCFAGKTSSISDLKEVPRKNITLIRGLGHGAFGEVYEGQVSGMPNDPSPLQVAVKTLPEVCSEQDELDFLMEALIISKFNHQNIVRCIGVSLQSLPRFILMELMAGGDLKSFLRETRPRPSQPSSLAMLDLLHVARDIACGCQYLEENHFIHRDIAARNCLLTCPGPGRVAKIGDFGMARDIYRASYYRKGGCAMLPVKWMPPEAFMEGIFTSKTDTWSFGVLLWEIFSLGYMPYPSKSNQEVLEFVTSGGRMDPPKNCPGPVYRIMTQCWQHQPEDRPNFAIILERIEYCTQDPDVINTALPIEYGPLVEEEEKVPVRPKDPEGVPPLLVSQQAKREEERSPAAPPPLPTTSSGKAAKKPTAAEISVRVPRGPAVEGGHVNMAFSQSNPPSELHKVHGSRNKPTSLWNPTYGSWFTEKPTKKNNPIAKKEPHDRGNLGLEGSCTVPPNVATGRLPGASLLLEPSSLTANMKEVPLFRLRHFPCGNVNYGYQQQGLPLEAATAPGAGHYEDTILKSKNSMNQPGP
Procedure: as §1, §2

BaF3 parental = experiment: Cytotoxicity test (CellTiter-Glo), BaF3 parental; assay type: cell-based; conditions: Mus musculus, 72 hours, read-out: IC50(nM) parental (Ba/F3)
Procedure: (§3) The in vitro anti-proliferative activity of the compounds of the present disclosure against three types of cells that are cultured in vitro was tested by CellTiter-Glo method.
(§4) Cell lines: BaF3 parental; BaF3 [EML4-ALK] (From WuXi PharmaTech) and BaF3 [EMF4-AFK F1196M] (From WuXi PharmaTech); wherein, BaF3 parental was cultured in RPMI1640 medium containing 10 ng/ml IL-3, 10% fetal bovine serum, 100 U/ml penicillin, and 100 μg/ml streptomycin, BaF3 [EMF4-AFK] and BaF3 [EMF4-AFK F1196M] were cultured in RPMI1640 medium containing 10% fetal bovine serum, 100 U/ml penicillin, and 100 μg/ml streptomycin.
(§5) Reagents and materials: RPMI-1640 (GIBCO, Cat. No. A10491-01); fetal bovine serum (GIBCO, Cat. No. 10099141); 0.25% trypsin-EDTA (GIBCO, Cat. No. 25200); penicillin-streptomycin, liquid (GIBCO, Cat. No. 15140-122); DMSO (Sigma, Cat. No. D2650); CellTiter-Glo Test Kit (Promega, Cat. No. G7572), and 96-well plate (Corning, Cat. No. 3365).
(§6) 1. The test compounds were dissolved in DMSO to make stock solutions and subjected to a series gradient dilution to give solutions with 10-fold working concentration.
(§7) 2. The cells in the logarithmic growth phase were diluted with the culture solution to adjust to the specific cell concentration, 90 μi of cell suspension was added to the 96-well plate to make the cell density reach the specified concentration. The plate was incubated in a incubator at 37° C., containing 5% carbon dioxide gas overnight.
(§8) 3. 10 μl drug solutions were added to each well of the 96-well plate inoculated with cells. 10 concentrations of the compounds were tested starting from the highest concentration of 20 μM with a 3-fold series gradient dilution in duplicate.
(§9) 4. After continuously cultured for 72 hours, the cells were detected by CellTiter-Glo for the cell viability. The dose-effect curve was made using GraphPad Prism software and IC50 was calculated.

BaF3 [EML4-ALK] [1] = target: T1, BaF3 [EML4-ALK] (Homo sapiens, UniProt Q9UM73); experiment: Cytotoxicity test (CellTiter-Glo), BaF3 [EML4-ALK]; assay type: cell-based; conditions: 72 hours, CellTiter-Glo; read-out: IC50(nM) ALK (Ba/F3)
T1 construct: IC50(nM) ALK (Ba/F3); other: 72 hours, CellTiter-Glo; BaF3 [EML4-ALK]; fused on or other part: Q9HC35 (Echinoderm microtubule-associated protein-like 4)
T1 sequence (Q9UM73 whole entry, change not shown, the tested form may be a part): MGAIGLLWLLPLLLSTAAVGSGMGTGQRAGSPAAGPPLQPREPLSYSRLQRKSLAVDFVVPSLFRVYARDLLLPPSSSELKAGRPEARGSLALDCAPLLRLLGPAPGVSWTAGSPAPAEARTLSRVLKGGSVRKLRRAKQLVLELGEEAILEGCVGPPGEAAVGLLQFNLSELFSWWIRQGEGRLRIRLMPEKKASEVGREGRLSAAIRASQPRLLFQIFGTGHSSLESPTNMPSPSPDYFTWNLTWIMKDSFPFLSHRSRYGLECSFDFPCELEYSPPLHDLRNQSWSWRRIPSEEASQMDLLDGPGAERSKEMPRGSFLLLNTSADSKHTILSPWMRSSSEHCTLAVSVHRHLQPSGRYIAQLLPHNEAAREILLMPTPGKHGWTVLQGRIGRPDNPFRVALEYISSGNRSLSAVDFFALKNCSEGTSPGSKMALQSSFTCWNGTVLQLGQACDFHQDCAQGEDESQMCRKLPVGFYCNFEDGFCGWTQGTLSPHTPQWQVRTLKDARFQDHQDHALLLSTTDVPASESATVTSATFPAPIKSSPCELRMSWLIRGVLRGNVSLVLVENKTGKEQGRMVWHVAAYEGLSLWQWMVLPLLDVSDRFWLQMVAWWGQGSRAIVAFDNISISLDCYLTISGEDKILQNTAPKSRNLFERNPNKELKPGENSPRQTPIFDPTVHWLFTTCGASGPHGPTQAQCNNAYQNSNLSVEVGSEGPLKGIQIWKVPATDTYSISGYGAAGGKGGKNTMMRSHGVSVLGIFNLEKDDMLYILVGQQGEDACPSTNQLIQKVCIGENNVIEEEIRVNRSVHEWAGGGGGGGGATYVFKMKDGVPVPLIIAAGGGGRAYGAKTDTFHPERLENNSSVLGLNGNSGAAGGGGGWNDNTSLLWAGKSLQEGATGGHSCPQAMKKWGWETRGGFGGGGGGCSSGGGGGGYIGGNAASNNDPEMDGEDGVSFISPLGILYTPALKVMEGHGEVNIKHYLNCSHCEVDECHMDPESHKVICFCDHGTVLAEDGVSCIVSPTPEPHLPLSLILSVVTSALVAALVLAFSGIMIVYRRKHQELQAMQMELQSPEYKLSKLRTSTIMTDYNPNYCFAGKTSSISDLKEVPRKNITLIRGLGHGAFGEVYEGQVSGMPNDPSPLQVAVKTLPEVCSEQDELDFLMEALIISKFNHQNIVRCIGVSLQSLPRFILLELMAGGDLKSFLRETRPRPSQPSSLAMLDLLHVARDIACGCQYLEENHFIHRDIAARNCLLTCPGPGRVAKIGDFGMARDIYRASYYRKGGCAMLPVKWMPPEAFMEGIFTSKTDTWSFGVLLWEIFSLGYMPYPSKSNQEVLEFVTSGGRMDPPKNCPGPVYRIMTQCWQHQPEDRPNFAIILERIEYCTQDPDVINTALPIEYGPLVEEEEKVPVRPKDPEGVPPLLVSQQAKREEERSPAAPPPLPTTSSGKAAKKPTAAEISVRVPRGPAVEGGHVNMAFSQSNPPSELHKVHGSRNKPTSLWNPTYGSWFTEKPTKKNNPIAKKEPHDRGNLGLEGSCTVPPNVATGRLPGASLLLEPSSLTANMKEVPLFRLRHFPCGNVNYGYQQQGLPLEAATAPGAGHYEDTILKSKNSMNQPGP
Procedure: as §3, §4, §5, §6, §7, §8, §9

BaF3 [EML4-ALK] [2] = experiment: Cytotoxicity test (CellTiter-Glo), BaF3 [EML4-ALK]; assay type: cell-based; conditions: Ba/F3 cells
Procedure: as §3, §4, §5, §6, §7, §8, §9

ALK[L1196M] (Ba/F3) [3] = target: T2, ALK[L1196M] (Ba/F3) (Homo sapiens, UniProt Q9UM73, L1196M, cells depend on it); experiment: Cytotoxicity test (CellTiter-Glo), BaF3 EML4-ALK L1196M; assay type: cell-based; conditions: 72 hours, CellTiter-Glo; read-out: IC50(nM) ALK[L1196M] (Ba/F3)
T2 construct: IC50(nM) ALK[L1196M]; (Ba/F3); other: 72 hours, CellTiter-Glo; BaF3 [EMF4-AFK F1196M]; fused on or other part: Q9HC35 (Echinoderm microtubule-associated protein-like 4)
T2 sequence (Q9UM73 whole entry L1196M, the tested form may be a part): as the sequence (Q9UM73 whole entry, change not shown, the tested form may be a part) above, with L1196M counted along it
Procedure: as §3, §4, §5, §6, §7, §8, §9

ALK[L1196M] (Ba/F3) [4] = experiment: as above; assay type: cell-based; conditions: Ba/F3 cells
Procedure: as §3, §4, §5, §6, §7, §8, §9

[5] = Metabolic stability in human liver microsomes; assay type: in vitro ADME; conditions: pH 7.4, 1 μM compound, 0.5 mg/mL protein; for microsomal CLint at 1 μM: read-out: CLint (uL/min/mg), Human liver microsome experiment; for half-life at 1 μM: read-out: t1/2 (min), Human liver microsome experiment
Procedure: (§10) Experiments in microsomes: Human liver microsomes: 0.5 mg/mL, Xenotech; Rat liver microsomes: 0.5 mg/mL, Xenotech; Coenzyme (NADPH/NADH): 1 mM, Sigma Life Science; Magnesium chloride: 5 mM, 100 mM phosphate buffer (pH 7.4).
(§11) Preparation of stock solution: Powder of the example compounds was accurately weighed and dissolved in DMSO to 5 mM. Preparation of phosphate buffer (100 mM, pH7.4): A pre-formulated 0.5M potassium dihydrogen phosphate (150 mL) was mixed with 0.5M dibasic potassium phosphate (700 mL). The pH of the mixture was adjusted to 7.4 with 0.5M dibasic potassium phosphate solution. The mixture was diluted 5-fold with ultrapure water before use, and magnesium chloride was added to obtain a phosphate buffer (100 mM) containing 100 mM potassium phosphate, 3.3 mM magnesium chloride, pH7.4. A NADPH regeneration system solution (containing 6.5 mM NADP, 16.5 mM G-6-P, 3 U/mL G-6-PD, 3.3 mM magnesium chloride) was prepared and placed on wet ice prior to use. Preparation of stop solution: acetonitrile solution containing 50 ng/mL propranolol hydrochloride and 200 ng/mL tolbutamide (internal standard). 25057.5 μL of phosphate buffer (pH 7.4) was taken into a 50 mL centrifuge tube, to which 812.5 μL human liver microsomes were added, and mixed to obtain a liver microsome dilution solution with a protein concentration of 0.625 mg/mL. 25057.5 μL of phosphate buffer (pH 7.4) was taken into a 50 mL centrifuge tube, to which 812.5 μL SD rat liver microsomes were added, and mixed to obtain a liver microsome dilution solution with a protein concentration of 0.625 mg/mL.
(§12) Incubation of the samples: The stock solution of the respective compound was respectively diluted to 0.25 mM with an aqueous solution containing 70% acetonitrile, and used as a working solution, ready for use. 398 μL of the dilution solution of human liver microsomes or rat liver microsome were added to a 96-well incubation plate (N=2), respectively, and 2 μL of 0.25 mM working solution was added and mixed.
(§13) Metabolic stability assay: 300 μL of pre-chilled stop solution was added to each well of a 96-well deep well plate and placed on ice as a stop plate. The 96 well incubation plate and NADPH regeneration system were placed in a 37° C. water bath box, shaken at 100 rpm and pre-incubated for 5 min. 80 μL of incubation solution was taken out from each well of the incubation plate and added to the stop plate, mixed, and replenished with 20 μL of NADPH regeneration system solution as a 0-min sample. 80 μL of NADPH regeneration system solution was added to each well of the incubation plate to start the reaction and start counting. […] Separately, 100 μL of the reaction solution was taken at 10, 30, and 90 min reaction, respectively, added to a stop plate, and vortexed for 3 minutes to terminate the reaction. The stop plate was centrifuged at 5000×g at 4° C. for 4 min. 100 μL of the supernatant was added to a 96-well plate to which 100 μL of distilled water was previously added, mixed, and analyzed by LC-MS/MS.
(§14) Data analysis: The peak areas of the corresponding compound and internal standard were detected by LC-MS/MS system, and the ratio of the peak area of the compound to the internal standard was calculated.

[6] = Metabolic stability in rat liver microsomes; assay type: in vitro ADME; conditions: SD, pH 7.4, 1 μM compound, 0.5 mg/mL protein; for microsomal CLint at 1 μM: read-out: CLint (uL/min/mg), Rat liver microsome experiment; for half-life at 1 μM: read-out: t1/2 (min), Rat liver microsome experiment
Procedure: as §10, §11, §12, §13, §14

Sequence of ALK [WT] (Q9UM73 19-1620): as the sequence (Q9UM73 19-1620 L1196M) above, with M1178L counted along it

Row | SMILES | IC50 (ALK [WT]) [nM] | IC50 (ALK [L1196M]) [nM] | IC50 (BaF3 parental) [nM] | GI50 (BaF3 [EML4-ALK] [1]) [nM] | Selectivity parental/ALK (BaF3 [EML4-ALK] [2]) | GI50 (ALK[L1196M] (Ba/F3) [3]) [nM] | Selectivity parental/ALK[L1196M] (ALK[L1196M] (Ba/F3) [4]) | microsomal CLint at 1 μM [5] [µL/min/mg] | half-life at 1 μM [5] [min] | microsomal CLint at 1 μM [6] [µL/min/mg] | half-life at 1 μM [6] [min]
1 | CNCCc1cc(OC)c(Nc2ncc(Cl)c(Nc3ccccc3P(C)(C)=O)n2)cc1C [Example 21, (2-((5-chloro-2-((2-methoxy-5-methyl-4-(2-(methylamino)ethyl)phenyl)amino)pyrimidin-4-yl)amino)phenyl)dimethylphosphine oxide] | 2 to 5 | 5 to 10 | ≥ 1000 | 100 to 200 | <50 | 200 to 1000 | <50 | 27.7 | 50 | 7.2 | 193
2 | COc1cc(CCN2CCN(C)CC2)ccc1Nc1ncc(Cl)c(Nc2ccccc2P(C)(C)=O)n1 [Example 5, (2-((5-chloro-2-((2-methoxy-4-(2-(4-methylpiperazin-1-yl)ethyl)phenyl)amino)pyrimidin-4-yl)amino)phenyl)dimethylphosphine oxide] | ≤ 2 | ≤ 2 | ≥ 1000 | < 25 | 200 to 500 | 25 to 50 | 100 to 200 | 17.3 | 80 | 35.9 | 38.6
3 | CNC(C)c1ccc(Nc2ncc(Cl)c(Nc3ccccc3P(C)(C)=O)n2)c(OC)c1 (centres unmarked) [Example 9, (2-((5-chloro-2-((4-(1-(methylamino)ethyl)-2-methoxyphenyl)amino)pyrimidin-4-yl)amino)phenyl)dimethylphosphine oxide] | 2 to 5 | 2 to 5 | ≥ 1000 | 50 to 100 | 50 to 100 | 200 to 1000 | <50 | 11.3 | 123 | 9.9 | 140
4 | COc1cc(CCN2CCOCC2)ccc1Nc1ncc(Cl)c(Nc2ccccc2P(C)(C)=O)n1 [Example 6, (2-((5-chloro-2-((2-methoxy-4-(2-morpholinoethyl)phenyl)amino)pyrimidin-4-yl)amino)phenyl)dimethylphosphine oxide] | 2 to 5 | 2 to 5 | ≥ 1000 | < 25 | 200 to 500 | 100 to 200 | <50 | 29.1 | 47.6 | 85.1 | 16.3
5 | COc1cc(C(C)N)ccc1Nc1ncc(Cl)c(Nc2ccccc2P(C)(C)=O)n1 (centres unmarked) [Example 7, (2-((2-((4-(1-aminoethyl)-2-methoxyphenyl)amino)-5-chloropyrimidin-4-yl)amino)phenyl)dimethylphosphine oxide] | 2 to 5 | 2 to 5 | ≥ 1000 | 50 to 100 | <50 | 200 to 1000 | <50 | 5.7 | 244 | 4.1 | 340
6 | COc1cc(CCN(C)C)ccc1Nc1ncc(Cl)c(Nc2ccccc2P(C)(C)=O)n1 [Example 3, (2-((5-chloro-2-((4-(2-(dimethylamino)ethyl)-2-methoxyphenyl)amino)pyrimidin-4-yl)amino)phenyl)dimethylphosphine oxide] | ≤ 2 | 2 to 5 | ≥ 1000 | 25 to 50 | 50 to 100 | 100 to 200 | <50 | 15.4 | 90.1 | 50.4 | 27.5
7 | COc1cc(CCN2CCCCC2)ccc1Nc1ncc(Cl)c(Nc2ccccc2P(C)(C)=O)n1 [Example 4, (2-((5-chloro-2-((2-methoxy-4-(2-(piperidin-1-yl)ethyl)phenyl)amino)pyrimidin-4-yl)amino)phenyl)dimethylphosphine oxide] | ≤ 2 | 2 to 5 | ≥ 1000 | < 25 | 200 to 500 | 50 to 100 | <50 | 26.7 | 51.9 | 34.7 | 39.9
